Experimental data from PubChem BioAssay AID2060888 (Molecular Pharmacology Branch, DTP, NCI, 2025).

System: 695427-040-R-J1-PDC complex spheroid viability
Assay: Anticancer human tumor 695427-040-R-J1-PDC patient-derived colon adenocarcinoma cell line growth inhibition [RAS]
Conditions: for IC50: curve of first compound; for viability, T/C: stronger effect = lower value
Summary of the method: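 Tumour cells grown as complex spheroids with HUVEC endothelial cells and mesenchymal stem cells, treated with RAS pathway inhibitor combinations. Each agent spans half-log steps from near clinical Cmax, or 10 microM where Cmax is unknown.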

[1] = second compound 0.0316 µM, first compound 0.0316 µM
[2] = second compound 0.0316 µM, first compound 0.1 µM
[3] = second compound 0.0316 µM, first compound 0.316 µM
[4] = second compound 0.0316 µM, first compound 1 µM
[5] = second compound 0.1 µM, first compound 0.0316 µM
[6] = second compound 0.1 µM, first compound 0.1 µM
[7] = second compound 0.1 µM, first compound 0.316 µM
[8] = second compound 0.1 µM, first compound 1 µM
[9] = second compound 0.316 µM, first compound 0.0316 µM
[10] = second compound 0.316 µM, first compound 0.1 µM
[11] = second compound 0.316 µM, first compound 0.316 µM
[12] = second compound 0.316 µM, first compound 1 µM
[13] = second compound 1 µM, first compound 0.0316 µM
[14] = second compound 1 µM, first compound 0.1 µM
[15] = second compound 1 µM, first compound 0.316 µM
[16] = second compound 1 µM, first compound 1 µM
[17] = second compound 3.16 µM, first compound 0.0316 µM
[18] = second compound 3.16 µM, first compound 0.1 µM
[19] = second compound 3.16 µM, first compound 0.316 µM
[20] = second compound 3.16 µM, first compound 1 µM
[21] = second compound 10 µM, first compound 0.0316 µM
[22] = second compound 10 µM, first compound 0.1 µM
[23] = second compound 10 µM, first compound 0.316 µM
[24] = second compound 10 µM, first compound 1 µM
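Note: viability read after seven days of drug exposure.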
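Throughout, for viability, T/C: 100% = DMSO vehicle control viability.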

C=CC(=O)N1CCN(c2nc(OCC3CCCN3C)nc3c(F)c(-c4nc(N)cc(C)c4C(F)(F)F)c(Cl)cc23)C(C)C1 (stereo unspecified) + C#Cc1c(F)ccc2cc(O)cc(-c3ncc4c(N5CC6CCC(C5)N6)nc(OCC56CCCN5CC(F)C6)nc4c3F)c12
IC50 (second compound 0.0316 µM): > 1000 nM | IC50 (second compound 0.1 µM): > 1000 nM | IC50 (second compound 0.316 µM): > 1000 nM | IC50 (second compound 1 µM): > 1000 nM | IC50 (second compound 3.16 µM): 498 nM | IC50 (second compound 10 µM): < 3.16 nM | viability, T/C (second compound 0.0316 µM, first compound 0.00316 µM): 88.4% | viability, T/C (second compound 0.0316 µM, first compound 0.01 µM): 104% | viability, T/C [1]: 96.7% | viability, T/C [2]: 95% | viability, T/C [3]: 98.5% | viability, T/C [4]: 92.9% | viability, T/C (second compound 0.1 µM, first compound 0.00316 µM): 98.4% | viability, T/C (second compound 0.1 µM, first compound 0.01 µM): 89.5% | viability, T/C [5]: 98.5% | viability, T/C [6]: 85.5% | viability, T/C [7]: 94.7% | viability, T/C [8]: 83.3% | viability, T/C (second compound 0.316 µM, first compound 0.00316 µM): 91.6% | viability, T/C (second compound 0.316 µM, first compound 0.01 µM): 88% | viability, T/C [9]: 95.5% | viability, T/C [10]: 83.1% | viability, T/C [11]: 89% | viability, T/C [12]: 67% | viability, T/C (second compound 1 µM, first compound 0.00316 µM): 76.2% | viability, T/C (second compound 1 µM, first compound 0.01 µM): 78.4% | viability, T/C [13]: 67.2% | viability, T/C [14]: 67.3% | viability, T/C [15]: 60.4% | viability, T/C [16]: 58.4% | viability, T/C (second compound 3.16 µM, first compound 0.00316 µM): 56.3% | viability, T/C (second compound 3.16 µM, first compound 0.01 µM): 53% | viability, T/C [17]: 62.9% | viability, T/C [18]: 58.7% | viability, T/C [19]: 52.6% | viability, T/C [20]: 41.5% | viability, T/C (second compound 10 µM, first compound 0.00316 µM): 39.6% | viability, T/C (second compound 10 µM, first compound 0.01 µM): 39.8% | viability, T/C [21]: 37.8% | viability, T/C [22]: 45.8% | viability, T/C [23]: 38.6% | viability, T/C [24]: 42.8%

CC(=O)OC12COC1CC(O)C1(C)C(=O)C(O)C3=C(C)C(OC(=O)C(O)C(NC(=O)OC(C)(C)C)c4ccccc4)CC(O)(C(OC(=O)c4ccccc4)C21)C3(C)C (stereo unspecified) + C#Cc1c(F)ccc2cc(O)cc(-c3ncc4c(N5CC6CCC(C5)N6)nc(OCC56CCCN5CC(F)C6)nc4c3F)c12
IC50 (second compound 0.0316 µM): > 10000 nM | IC50 (second compound 0.1 µM): > 10000 nM | IC50 (second compound 0.316 µM): > 10000 nM | IC50 (second compound 1 µM): > 10000 nM | IC50 (second compound 3.16 µM): < 31.6 nM | IC50 (second compound 10 µM): < 31.6 nM | viability, T/C [1]: 67.3% | viability, T/C [2]: 67% | viability, T/C [3]: 69.9% | viability, T/C [4]: 80.3% | viability, T/C (second compound 0.0316 µM, first compound 3.16 µM): 85.8% | viability, T/C (second compound 0.0316 µM, first compound 10 µM): 90.5% | viability, T/C [5]: 66.9% | viability, T/C [6]: 70.5% | viability, T/C [7]: 66% | viability, T/C [8]: 80% | viability, T/C (second compound 0.1 µM, first compound 3.16 µM): 89.1% | viability, T/C (second compound 0.1 µM, first compound 10 µM): 87.7% | viability, T/C [9]: 70.7% | viability, T/C [10]: 68% | viability, T/C [11]: 64.8% | viability, T/C [12]: 72.6% | viability, T/C (second compound 0.316 µM, first compound 3.16 µM): 76.8% | viability, T/C (second compound 0.316 µM, first compound 10 µM): 81.8% | viability, T/C [13]: 59.5% | viability, T/C [14]: 59.1% | viability, T/C [15]: 59% | viability, T/C [16]: 58.8% | viability, T/C (second compound 1 µM, first compound 3.16 µM): 67.3% | viability, T/C (second compound 1 µM, first compound 10 µM): 61% | viability, T/C [17]: 47.6% | viability, T/C [18]: 44.2% | viability, T/C [19]: 42.4% | viability, T/C [20]: 50.4% | viability, T/C (second compound 3.16 µM, first compound 3.16 µM): 49.7% | viability, T/C (second compound 3.16 µM, first compound 10 µM): 45.3% | viability, T/C [21]: 32.3% | viability, T/C [22]: 30.4% | viability, T/C [23]: 25.2% | viability, T/C [24]: 32% | viability, T/C (second compound 10 µM, first compound 3.16 µM): 29.6% | viability, T/C (second compound 10 µM, first compound 10 µM): 30.1%

CCc1c2c(nc3ccc(O)cc13)-c1cc3c(c(=O)n1C2)COC(=O)[C@]3(O)CC + C#Cc1c(F)ccc2cc(O)cc(-c3ncc4c(N5CC6CCC(C5)N6)nc(OCC56CCCN5CC(F)C6)nc4c3F)c12
IC50 (second compound 0.0316 µM): 119 nM | IC50 (second compound 0.1 µM): 122 nM | IC50 (second compound 0.316 µM): 93.3 nM | IC50 (second compound 1 µM): 59.7 nM | IC50 (second compound 3.16 µM): 10.7 nM | IC50 (second compound 10 µM): < 0.949 nM | viability, T/C (second compound 0.0316 µM, first compound 0.000949 µM): 89.1% | viability, T/C (second compound 0.0316 µM, first compound 0.003 µM): 89.8% | viability, T/C (second compound 0.0316 µM, first compound 0.00949 µM): 77.9% | viability, T/C (second compound 0.0316 µM, first compound 0.03 µM): 76% | viability, T/C (second compound 0.0316 µM, first compound 0.0949 µM): 53.5% | viability, T/C (second compound 0.0316 µM, first compound 0.3 µM): 30.4% | viability, T/C (second compound 0.1 µM, first compound 0.000949 µM): 96.1% | viability, T/C (second compound 0.1 µM, first compound 0.003 µM): 86.2% | viability, T/C (second compound 0.1 µM, first compound 0.00949 µM): 78.8% | viability, T/C (second compound 0.1 µM, first compound 0.03 µM): 72.2% | viability, T/C (second compound 0.1 µM, first compound 0.0949 µM): 58.7% | viability, T/C (second compound 0.1 µM, first compound 0.3 µM): 28.6% | viability, T/C (second compound 0.316 µM, first compound 0.000949 µM): 82% | viability, T/C (second compound 0.316 µM, first compound 0.003 µM): 79.9% | viability, T/C (second compound 0.316 µM, first compound 0.00949 µM): 70.7% | viability, T/C (second compound 0.316 µM, first compound 0.03 µM): 67.1% | viability, T/C (second compound 0.316 µM, first compound 0.0949 µM): 49.4% | viability, T/C (second compound 0.316 µM, first compound 0.3 µM): 25.7% | viability, T/C (second compound 1 µM, first compound 0.000949 µM): 73.8% | viability, T/C (second compound 1 µM, first compound 0.003 µM): 66.1% | viability, T/C (second compound 1 µM, first compound 0.00949 µM): 60.1% | viability, T/C (second compound 1 µM, first compound 0.03 µM): 59.8% | viability, T/C (second compound 1 µM, first compound 0.0949 µM): 45.8% | viability, T/C (second compound 1 µM, first compound 0.3 µM): 27.2% | viability, T/C (second compound 3.16 µM, first compound 0.000949 µM): 54.3% | viability, T/C (second compound 3.16 µM, first compound 0.003 µM): 52% | viability, T/C (second compound 3.16 µM, first compound 0.00949 µM): 48.7% | viability, T/C (second compound 3.16 µM, first compound 0.03 µM): 46% | viability, T/C (second compound 3.16 µM, first compound 0.0949 µM): 40.1% | viability, T/C (second compound 3.16 µM, first compound 0.3 µM): 24.9% | viability, T/C (second compound 10 µM, first compound 0.000949 µM): 37.4% | viability, T/C (second compound 10 µM, first compound 0.003 µM): 36.5% | viability, T/C (second compound 10 µM, first compound 0.00949 µM): 36.8% | viability, T/C (second compound 10 µM, first compound 0.03 µM): 28.1% | viability, T/C (second compound 10 µM, first compound 0.0949 µM): 26.2% | viability, T/C (second compound 10 µM, first compound 0.3 µM): 17.2%
